# Patent publication US4117151A, “Therapeutic sulfonamides” (priority 1976, dated 1978)
# “Also recorded” adds a separate entry of the source. Structures can show the parent of a compound that is named as a salt.
# Experiments:
# myocardium = conditions: background; cited from earlier work
# acute toxicity in rats = assay type: in vivo; conditions: rat, in vivo, single administration, 12 days observation
# Procedure: (§1) Finally, acute toxicity tests were carried out on rats and mice with Compound No. 7 and on rats with Compounds Nos. 13 and 14, the animals being kept under observation for 12 days following one single administration.
# rats = assay: acute toxicity in rats; assay type: in vivo; conditions: single administration, 12 days observation
# Procedure: as §1
# [1] = system: blood-flow to the myocardium; assay: arterial coronary blood-flow (blood-flow to the myocardium); assay type: in vivo, dog; conditions: 10 mg/kg intravenous
# Procedure: (1) The capability of Compound No. 7 of increasing the blood-flow to the myocardium and thus stepping up the supply of oxygen to this muscle was determined in accordance with the technique described by R. CHARLIER and J. BAUTHIER in Arzneimittel Forschung "Drug Research" 23, 1305-1311 (1973).
# Seven experiments were carried out on seven dogs, using a intravenous injection of 10 mg/kg of Compound No. 7. […] The increase in blood-flow was regular and the return to the control values took place progressively within twenty minutes.
# cardiac output = assay: cardiac output; assay type: in vivo; conditions: dog, 10 mg/kg intravenous
# Procedure: (§2) The same experimental conditions as above were observed and the following parameters were measured: […]
# cardiac frequency = assay: cardiac frequency, 60 minutes experiment; assay type: in vivo; conditions: dog, 10 mg/kg intravenous, during 60 minutes
# Procedure: as §2
# stroke volume = stroke volume (cardiac output divided by heart-beats per minute); assay type: in vivo; conditions: dog, 10 mg/kg intravenous; for Stroke Volume: initial value 100%
# Procedure: The same experimental conditions as above were observed and the following parameters were measured:
# Thus, in order to determine the effect of any particular substance on stroke volume, it is sufficient to divide cardiac output by the number of heart-beats per minute.
# [2] = system: oxygen consumption of the myocardium; assay: oxygen consumption of the myocardium (rate-pressure product); assay type: in vivo; conditions: anaesthetized dog, 10 mg/kg intravenous, 100 before administration
# Procedure: This comparative trial aimed at determining the respective capabilities of the two substances to reduce the oxygen consumption of the myocardium. This property was measured by the indirect method known as the "rate-pressure product" which is a widely used and accurate haemodynamic index of myocardial oxygen consumption.
# This method requires two cardiovascular parameters to be measured simultaneously, namely the mean aortic systolic blood-pressure and the heart-rate.
# The "rate-pressure product" is obtained by multiplying the number of heart beats per minute by the mean aortic systolic blood-pressure. This provides an index of the total amount of oxygen used by the myocardium over a period of one minute. As it thus represents an accurate indication of the oxygen consumption of the myocardium, any lowering of the "rate-pressure product" indicates a corresponding drop in the oxygen consumption of the myocardium.
# These tests were carried out on dogs which had been previously anaesthetized with sodium pentobarbital (30 mg/kg by intravenous route).
# In both cases, the injection of 10 mg/kg took 2 minutes to administer.
# acute toxicity in mice = assay type: in vivo; conditions: mouse, in vivo, single administration, 12 days observation
# Procedure: as §1
# mice = assay: acute toxicity in mice; assay type: in vivo; conditions: single administration, 12 days observation
# Procedure: as §1
# patient = conditions: clinical use; background; cited from earlier work
smiles,measurement,setting,value
CC(C)NCC(O)COc1cccc2ccccc12 (racemic) [prapranolol],anti-adrenergic effect,myocardium,exert an anti-adrenergic effect
same,cardiac frequency,myocardium,considerably reduce cardiac frequency
same,cardiac functioning,myocardium,depress cardiac functioning
same,oxygen requirements of the myocardium,myocardium,diminish the oxygen requirements of the myocardium
same,supply of oxygen to the myocardium,myocardium,lower the supply of oxygen to the myocardium
CC(Cc1ccccc1)NCCC(c1ccccc1)c1ccccc1 (stereo not shown) [prenylamine],anti-adrenergic effect,myocardium,do not inhibit the cardio-vascular reactions to adrenergic stimulants
same,cardiac functioning,myocardium,do not depress the cardiac function
same,oxygen requirements of the myocardium,myocardium,do not reduce the oxygen requirements of the myocardium
same,supply of oxygen to the myocardium,myocardium,increase the supply of oxygen to the myocardium
CC(=O)Nc1ccc(OCC(O)CNC(C)C)cc1 (stereo not shown) [practolol],anti-adrenergic effect,myocardium,exert an anti-adrenergic effect
same,cardiac frequency,myocardium,considerably reduce cardiac frequency
same,cardiac functioning,myocardium,depress cardiac functioning
same,oxygen requirements of the myocardium,myocardium,diminish the oxygen requirements of the myocardium
same,supply of oxygen to the myocardium,myocardium,lower the supply of oxygen to the myocardium
"CCCCc1oc2ccccc2c1C(=O)c1ccc(N(CCCN(CCC)CCC)S(=O)(=O)c2ccc([N+](=O)[O-])cc2)cc1 [Compound 13, 2-n-butyl-3-[N-(3-di-n-propylaminopropyl)-N-(4-nitro-benzenesulfonyl)-4-amino-benzoyl]-benzofuran]",LD50 at 288 h,"acute toxicity in rats; ip, intraperitoneal",1000 mg/kg
same,LD0,rats; intraperitoneal,180 mg/kg
same,LD95,rats; intraperitoneal,3000 mg/kg
OCCN(CCO)c1nc(N2CCCCC2)c2nc(N(CCO)CCO)nc(N3CCCCC3)c2n1 [dipyridamole],anti-adrenergic effect,myocardium,do not inhibit the cardio-vascular reactions to adrenergic stimulants
same,cardiac functioning,myocardium,do not depress the cardiac function
same,oxygen requirements of the myocardium,myocardium,do not reduce the oxygen requirements of the myocardium
same,supply of oxygen to the myocardium,myocardium,increase the supply of oxygen to the myocardium
"CCCCc1oc2ccccc2c1C(=O)c1ccc(N(CCN(C)C)S(=O)(=O)c2ccc(C)cc2)cc1 [Compound 7, 2-n-butyl-3-[N-(2-dimethylaminoethyl)-N-(4-methyl-benzenesulfonyl)-4-amino-benzoyl]-benzofuran]",return of blood-flow to the control values,"[1]; dog, hydrochloride",twenty
same,supply of oxygen to the myocardium,"[1]; dog, conclusion in words",increases to a very marked degree the supply of oxygen to the myocardium
same,maximal increase in blood-flow to the myocardium,"[1]; seven dogs, after 3 minutes, hydrochloride",about 94%
same,return of cardiac output to the control value,cardiac output,≤ 20 min
same,increase in cardiac output,cardiac output; after 2.5 minutes,70%
same,increase in cardiac output,cardiac output; after 5 minutes,50%
same,cardiac frequency,cardiac frequency,dropped to a highly significant degree during 60 minutes
same,increase in stroke volume,stroke volume; during the first 5 minutes,above 100%
same,Stroke Volume,stroke volume; 2.5 min,213%
same,Stroke Volume,stroke volume; 5 min,200%
same,Stroke Volume,stroke volume; 10 min,172%
same,Stroke Volume,stroke volume; 15 min,152%
same,Stroke Volume,stroke volume; 20 min,143%
same,Stroke Volume,stroke volume; 25 min,136%
same,Stroke Volume,stroke volume; 30 min,137%
same,Stroke Volume,stroke volume; 35 min,138%
same,Stroke Volume,stroke volume; 40 min,127%
same,Stroke Volume,stroke volume; 45 min,127%
same,Stroke Volume,stroke volume; 50 min,130%
same,Stroke Volume,stroke volume; 55 min,120%
same,Stroke Volume,stroke volume; 60 min,117%
same,performance of the cardiac muscle,stroke volume; conclusion in words,"does not depress the performance of the cardiac muscle, and even stimulates this extremely important factor of cardiac functioning"
same,Oxygen Consumption (rate-pressure product),[2]; 2.5 minutes after,54.4
same,Oxygen Consumption (rate-pressure product),[2]; 5 minutes after,57.8
same,Oxygen Consumption (rate-pressure product),[2]; 10 minutes after,63.5
same,Oxygen Consumption (rate-pressure product),[2]; 15 minutes after,64.8
same,Oxygen Consumption (rate-pressure product),[2]; 20 minutes after,64.8
same,Oxygen Consumption (rate-pressure product),[2]; 25 minutes after,65.2
same,Oxygen Consumption (rate-pressure product),[2]; 30 minutes after,65.6
same,Oxygen Consumption (rate-pressure product),[2]; 35 minutes after,66.0
same,Oxygen Consumption (rate-pressure product),[2]; 40 minutes after,66.8
same,Oxygen Consumption (rate-pressure product),[2]; 45 minutes after,67.2
same,Oxygen Consumption (rate-pressure product),[2]; 50 minutes after,67.6
same,Oxygen Consumption (rate-pressure product),[2]; 55 minutes after,68.9
same,Oxygen Consumption (rate-pressure product),[2]; 60 minutes after,68.9
same,LD50 at 288 h,"acute toxicity in rats; ip, intraperitoneal",600 mg/kg
same,LD50 at 288 h,"acute toxicity in rats; po, intragastric",1600 mg/kg
same,LD0,rats; intragastric,800 mg/kg
same,LD95,rats; intragastric,2400 mg/kg
same,LD0,rats; intraperitoneal,160 mg/kg
same,LD95,rats; intraperitoneal,1400 mg/kg
same,LD50 at 288 h,"acute toxicity in mice; ip, intraperitoneal",275 mg/kg
same,LD50 at 288 h,"acute toxicity in mice; po, intragastric",2100 mg/kg
same,LD0,mice; intragastric,550 mg/kg
same,LD95,mice; intragastric,5000 mg/kg
same,LD0,mice; intraperitoneal,50 mg/kg
same,LD95,mice; intraperitoneal,900 mg/kg
"CCCCc1oc2ccccc2c1C(=O)c1cc(I)c(OCCN(CC)CC)c(I)c1 [Amiodarone, reference compound]",Oxygen Consumption (rate-pressure product),[2]; 2.5 minutes after,80.9
same,Oxygen Consumption (rate-pressure product),[2]; 5 minutes after,79.1
same,Oxygen Consumption (rate-pressure product),[2]; 10 minutes after,81.7
same,Oxygen Consumption (rate-pressure product),[2]; 15 minutes after,79.7
same,Oxygen Consumption (rate-pressure product),[2]; 20 minutes after,79.6
same,Oxygen Consumption (rate-pressure product),[2]; 25 minutes after,80.4
same,Oxygen Consumption (rate-pressure product),[2]; 30 minutes after,80.2
same,Oxygen Consumption (rate-pressure product),[2]; 35 minutes after,79.6
same,Oxygen Consumption (rate-pressure product),[2]; 40 minutes after,79.6
same,Oxygen Consumption (rate-pressure product),[2]; 45 minutes after,79.6
same,Oxygen Consumption (rate-pressure product),[2]; 50 minutes after,80.9
same,Oxygen Consumption (rate-pressure product),[2]; 55 minutes after,80.0
same,Oxygen Consumption (rate-pressure product),[2]; 60 minutes after,79.1
same,four qualities of an ideal anti-anginal agent,myocardium,possesses the four qualities
same,side-effects,patient,"microdeposit in the cornea; also recorded: in a few rare cases, the development of a cutaneous sensitivity to light which can lead to a slate-coloured pigmentation of the skin; also recorded: dysfunction of the thyroid gland"
C1CCC(C(CC2CCCCN2)C2CCCCC2)CC1 (stereo not shown) [perhexiline maleate],anti-adrenergic effect,myocardium,does not possess any anti-adrenergic properties
same,cardiac frequency,myocardium,diminishing cardiac frequency
same,cardiac functioning,myocardium,does not appear to exert a depressant effect upon cardiac functioning
same,oxygen requirements of the myocardium,myocardium,reducing the oxygen requirements of the myocardium
same,supply of oxygen to the myocardium,myocardium,increasing the supply of oxygen to the myocardium
"CCCCc1oc2ccccc2c1C(=O)c1ccc(N(CCCN(CCCC)CCCC)S(=O)(=O)c2ccc(OC)cc2)cc1 [Compound 14, 2-n-butyl-3-[N-(3-di-n-butylaminopropyl)-N-(4-methoxy-benzenesulfonyl)-4-amino-benzoyl]-benzofuran]",LD50 at 288 h,"acute toxicity in rats; ip, intraperitoneal",1000 mg/kg
same,LD0,rats; intraperitoneal,200 mg/kg
same,LD95,rats; intraperitoneal,3000 mg/kg
